Where a name gives a salt, the structure may show the parent alone.
Experiments:
[1] = tested on: Vibrio percolans ATCC 8461; experiment: 890 Assay Units, agar plate disc-diffusion, cephaloridine standard; format: cell-based
Protocol: II. Assay Procedure for Determining "890 Assay Units"
A conventional agar plate disc-diffusion method is employed using Vibrio percolans ATCC 8461 as tester organism. Cephaloridine is employed as a standard. Plates containing Vibrio percolans ATCC 8461 are prepared as follows. A culture of Vibrio percolans ATCC 8461 is incubated in nutrient broth-yeast extract overnight on a rotary shaker at 28° C. and then diluted to a density of 60% transmittance at 660 nm. A 33.2 ml. portion of this diluted culture is added to 1 liter of a medium composed of nutrient agar plus 0.2% yeast extract maintained at 46° C. The inoculated agar-containing medium is poured into 100×15 mn. plastic-petri dishes, 10 ml. per dish, chilled, and maintained at 2°-4° C. for up to 5 days before use.
The concentration of cephaloridine which is equivalent to 1 unit/ml. of 890A1 is determined by assay on plates prepared as above, but containing 5 ml. of inoculated medium per plate, as follows. Four concentrations of cephaloridine constitute the standard--3.12, 6.25, 12.5 and 25 mcg per ml. with the 12.5 mcg per ml. as a reference solution. The zone diameters on a 5 ml. plate for the standard are as follows:
A unit is defined as the amount of antibiotic per ml. producing a 25 mm. zone of inhibition on a 5 ml. plate as described in section I above. Therefore, in this assay a concentration of 12.5 mcg per ml. of cephaloridine is considered equivalent to 1 unit of 890A1 per ml. Since the slope of the line for cephaloridine is 4.0 calculations of the potency of a sample are made using a slope of 4.0

[2] = Hydroxylamine reaction (A300 decrease); format: physicochemical
Description: The disodium salt of antibiotic 890A10 has an absorption maximum at 299 nm and a minimum at 243 nm at neutral pH in water. The E% at 300 nm of the most highly purified preparation of disodium salt is 214. The ratio A300 /A250 is 3.33 for the most purified sample, and the ratio A300 /A220 is 2.05. […] More than 94% of the absorption at 300 nm can be extinguished by reaction with hydroxylamine at neutral pH. The absorbance at 250 nm also decreases upon reaction with hydroxylamine, and the ratio of the absorbance decrease at 250 nm to the decrease at 300 nm, is approximately 0.16. […]
Antibiotic 890A10 reacts with hydroxylamine and produces a substance with greatly diminished absorbance at 300 nm. This provides the basis for a quantitative assay of the antibiotic 890A10.
The solution to be assayed is brought to 0.05 M in potassium phosphate, pH 7.4 by adding 1/20th volume of a solution containing 0.8 M K2 HPO4 and 0.2 M KH2 PO4 . Then one-hundredth volume of 1 M hydroxylamine hydrochloride is added, and the absorbance at 300 nm is measured at intervals of one-half to two minutes. […] First-order kinetics are assumed and a half-life is estimated from the absorbance decrease during the first ten minutes. From this half-life, the time is estimated beyond which no further absorbance decrease should be observed and observations are continued beyond that time. […]

Row | SMILES | concentration equivalent to 1 unit of 890A1 per ml ([1]; 25 mm zone of inhibition on a 5 ml plate) | zone of inhibition at 3.12 µg/mL ([1]; Comamonas terrigena, ATCC8461, 3.12 mcg/ml, 5 ml plate, read-out: Zone Diameter) | zone of inhibition at 6.25 µg/mL ([1]; Comamonas terrigena, ATCC8461, 6.25 mcg/ml, 5 ml plate, read-out: Zone Diameter) | zone of inhibition at 12.5 µg/mL ([1]; Comamonas terrigena, ATCC8461, 12.5 mcg/ml (reference solution), 5 ml plate, read-out: Zone Diameter) | zone of inhibition at 25 µg/mL ([1]; Comamonas terrigena, ATCC8461, 25 mcg/ml, 5 ml plate, read-out: Zone Diameter) | absorption at 300 nm extinguished by reaction with hydroxylamine ([2]; neutral pH) | half-life of reaction with hydroxylamine ([2]; room temperature, apparently first order, A300 decrease, pH 7.4)
1 | O=C(Cc1cccs1)N[C@@H]1C(=O)N2C(C(=O)[O-])=C(C[n+]3ccccc3)CS[C@H]12 [cephaloridine] | 12.5 mcg per ml | 16.8 mm | 22.3 mm | 25 mm | 29.6 mm | – | –
2 | CC(=O)NCCSC1=C(C(=O)O)N2C(=O)C(C(C)OS(=O)(=O)O)C2C1 (stereo not shown) [disodium salt of antibiotic 890A10] | – | – | – | – | – | More than 94% | 23 to 60 s

Reference: patent US4264736A, “Antibiotic 890A10” (Merck & Co., Inc., priority 1979, dated 1981)
